target: recombinant CD73 (Homo sapiens (Human), UniProt P21589); assay: Assay 2: Inhibition of the CD73 enzyme in vitro (0.05 nM CD73, 1 hour 37° C., Malachite Green); assay type: biochemical; details: 0.05 nM CD73, 50 μM AMP, 1 hour at 37° C.
Outline: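 Soluble recombinant CD73 reactions ran 1 hour at 37° C. Malachite Green was then added, and absorbance at 630 nm was read after 5 min at room temperature. Inorganic phosphate was quantified from a phosphate standard curve.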

recombinant CD73, sequence (P21589 27-547): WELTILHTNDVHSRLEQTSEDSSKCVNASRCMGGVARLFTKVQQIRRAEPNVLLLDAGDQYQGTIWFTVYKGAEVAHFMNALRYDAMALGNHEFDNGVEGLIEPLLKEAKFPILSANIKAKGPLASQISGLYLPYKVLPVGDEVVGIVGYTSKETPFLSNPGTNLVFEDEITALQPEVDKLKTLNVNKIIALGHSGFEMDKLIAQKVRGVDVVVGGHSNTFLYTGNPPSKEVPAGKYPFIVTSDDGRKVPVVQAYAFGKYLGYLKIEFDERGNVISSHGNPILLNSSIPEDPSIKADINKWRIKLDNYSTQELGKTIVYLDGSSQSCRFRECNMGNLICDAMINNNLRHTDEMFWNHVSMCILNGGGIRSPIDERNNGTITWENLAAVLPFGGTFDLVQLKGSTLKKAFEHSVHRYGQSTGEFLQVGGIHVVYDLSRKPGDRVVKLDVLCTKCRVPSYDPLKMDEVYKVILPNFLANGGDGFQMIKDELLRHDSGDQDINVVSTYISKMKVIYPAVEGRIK

**Q.** C#C[C@@]1(O)[C@@H](COC(Cc2ccccc2)(C(=O)O)C(=O)O)O[C@@H](n2cnc3c(NC4(CO)CC4)nc(Cl)nc32)[C@@H]1O [Example 43, 2-benzyl-2-(((2R,3S,4R,5R)-5-(2-chloro-6-((1-(hydroxymethyl)-cyclopropyl)amino)-9H-purin-9-yl)-3-ethynyl-3,4-dihydroxytetrahydrofuran-2-yl)methoxy)malonic acid] was tested. Which IC50 did it give?
**A.** 2 nM

**Q.** How did the IC50 turn out when C#C[C@@H]1[C@@H](O)[C@H](n2cnc3c(N)nc(Cl)nc32)O[C@@H]1COC(Cc1ccccc1)(C(=O)O)C(=O)O [Compound 2, 2-(((2S,3R,4R,5R)-5-(6-amino-2-chloro-9H-purin-9-yl)-3-ethynyl-4-hydroxytetrahydrofuran-2-yl)methoxy)-2-benzylmalonic acid] was run?
**A.** 147 nM

**Q.** Nc1nc(Cl)nc2c1ncn2[C@@H]1O[C@H](COC(Cc2ccccc2)(C(=O)O)C(=O)O)[C@](O)(C#CC2CC2)[C@H]1O [Compound 4, 2-(((2R,3S,4R,5R)-5-(6-amino-2-chloro-9H-purin-9-yl)-3-(cyclopropylethynyl)-3,4-dihydroxytetrahydrofuran-2-yl)methoxy)-2-benzylmalonic acid] was tested. Which IC50 did it give?
**A.** 0.5 nM

**Q.** Which IC50 does the source give for C#C[C@@]1(O)[C@@H](COC(Cc2ccc(-c3cccnc3N)cc2)(C(=O)O)C(=O)O)O[C@@H](n2cnc3c(N)nc(Cl)nc32)[C@@H]1O [Example 197, 2-(((2R,3S,4R, 5R)-5-(6-amino-2-chloro-9H-purin-9-yl)-3-ethynyl-3,4-dihydroxytetrahydrofuran-2-yl)methoxy)-2-(4-(2-aminopyridin-3-yl)benzyl)malonic acid] here?
**A.** 0.73 nM

**Q.** Which IC50 does the source give for C#C[C@@]1(O)[C@@H](COC(Cc2ccccc2)(C(=O)O)C(=O)O)O[C@@H](n2cnc3c(NCc4ccncc4)nc(Cl)nc32)[C@@H]1O [Example 78, 2-benzyl-2-(((2R,3S,4R,5R)-5-(2-chloro-6-((pyridin-4-ylmethyl)amino)-9H-purin-9-yl)-3-ethynyl-3,4-dihydroxytetrahydrofuran-2-yl)methoxy)malonic acid] here?
**A.** 2 nM

**Q.** Which IC50 does the source give for C#C[C@@]1(O)[C@@H](COC(Cc2ccccc2)(C(=O)O)C(=O)NC)O[C@@H](n2cnc3c(NCc4ccccc4)nc(Cl)nc32)[C@@H]1O (stereo partly drawn) [Example 107, 2-benzyl-2-(((2R,3S,4R,5R)-5-(6-(benzylamino)-2-chloro-9H-purin-9-yl)-3-ethynyl-3,4-dihydroxytetrahydrofuran-2-yl)methoxy)-3-(methylamino)-3-oxopropanoic acid] here?
**A.** 506 nM

**Q.** For C=C[C@@]1(O)[C@@H](COC(Cc2ccccc2)(C(=O)O)C(=O)O)O[C@@H](n2cnc3c(N)nc(Cl)nc32)[C@@H]1O [Example 57, 2-(((2R,3S,4R,5R)-5-(6-amino-2-chloro-9H-purin-9-yl)-3,4-dihydroxy-3-vinyltetrahydrofuran-2-yl)methoxy)-2-benzylmalonic acid], which IC50 is on record?
**A.** 103 nM

**Q.** Which IC50 does the source give for C#C[C@@]1(O)[C@@H](COC(Cc2ccccc2)(C(=O)O)C(=O)O)O[C@@H](n2cnc3c(NCc4cccnc4)nc(Cl)nc32)[C@@H]1O [Example 84, 2-benzyl-2-(((2R,3S,4R,5R)-5-(2-chloro-6-((pyridin-3-ylmethyl)amino)-9H-purin-9-yl)-3-ethynyl-3,4-dihydroxytetrahydrofuran-2-yl)methoxy)malonic acid] here?
**A.** 3 nM

**Q.** How did the IC50 turn out when C#C[C@@]1(O)[C@@H](COC(Cc2ccc(-c3cccn(CCOC)c3=O)cc2)(C(=O)O)C(=O)O)O[C@@H](n2cnc3c(N)nc(Cl)nc32)[C@@H]1O [Example 146, 2-(((2R,3S,4R,5R)-5-(6-amino-2-chloro-9H-purin-9-yl)-3-ethynyl-3,4-dihydroxytetrahydrofuran-2-yl)methoxy)-2-(4-(1-(2-methoxyethyl)-2-oxo-1,2-dihydropyridin-3-yl)benzyl)malonic acid] was run?
**A.** 0.41 nM

**Q.** With C#C[C@@]1(O)[C@@H](COC(C(=O)O)S(=O)(=O)c2ccccc2)O[C@@H](n2cnc3c(N4CCOCC4)nc(Cl)nc32)[C@@H]1O (stereo partly drawn) [Example 119, 2-(((2R,3S,4R,5R)-5-(2-chloro-6-morpholino-9H-purin-9-yl)-3-ethynyl-3,4-dihydroxytetrahydrofuran-2-yl)methoxy)-2-(phenylsulfonyl)acetic acid] as the compound, how does the IC50 read?
**A.** 4610 nM

**Q.** Which IC50 does the source give for C#C[C@@]1(O)[C@@H](COC(Cc2ccccc2)(C(=O)O)C(=O)O)O[C@@H](n2cnc3c(NCc4ccccc4F)nc(Cl)nc32)[C@@H]1O [Example 67, 2-benzyl-2-(((2R,3S,4R,5R)-5-(2-chloro-6-((2-fluorobenzyl)amino)-9H-purin-9-yl)-3-ethynyl-3,4-dihydroxytetrahydrofuran-2-yl)methoxy)malonic acid] here?
**A.** 0.8 nM

**Q.** How did the IC50 turn out when C#C[C@@]1(O)[C@@H](COC(Cc2ccccc2)(C(=O)O)C(=O)O)O[C@@H](n2cnc3ccc(Cl)nc32)[C@@H]1O [Example 58, 2-benzyl-2-(((2R,3S,4R,5R)-5-(5-chloro-3H-imidazo[4,5-b]pyridin-3-yl)-3-ethynyl-3,4-dihydroxytetrahydrofuran-2-yl)methoxy)malonic acid] was run?
**A.** 1.6 nM

**Q.** How did the IC50 turn out when C#C[C@@]1(O)[C@@H](COC(Cc2ccc(-c3cccn(CCO)c3=O)cc2)(C(=O)O)C(=O)O)O[C@@H](n2cnc3c(N)nc(Cl)nc32)[C@@H]1O [Example 21, 2-(((2R,3S,4R,5R)-5-(6-amino-2-chloro-9H-purin-9-yl)-3-ethynyl-3,4-dihydroxytetrahydrofuran-2-yl)methoxy)-2-(4-(1-(2-hydroxyethyl)-2-oxo-1,2-dihydropyridin-3-yl)benzyl)malonic acid] was run?
**A.** 0.3 nM

**Q.** C#C[C@@]1(O)[C@@H](COC(Cc2ccc(N3CCCNC3=O)cc2)(C(=O)O)c2cscn2)O[C@@H](n2cnc3c(NC(C)C)nc(Cl)nc32)[C@@H]1O (stereo partly drawn) [Example 176, 2-(((2R,3S,4R,5R)-5-(2-chloro-6-(isopropylamino)-9H-purin-9-yl)-3-ethynyl-3,4-dihydroxytetrahydrofuran-2-yl)methoxy)-3-(4-(2-oxotetrahydropyrimidin-1(2H)-yl)phenyl)-2-(thiazol-4-yl)propanoic acid] was tested. Which IC50 did it give?
**A.** 5 nM

**Q.** With C#C[C@@]1(O)[C@@H](COC(Cc2ccccc2)(C(=O)O)C(=O)O)O[C@@H](n2cnc3c(N4CC(C)(O)C4)nc(Cl)nc32)[C@@H]1O [Example 47, 2-benzyl-2-(((2R,3S,4R,5R)-5-(2-chloro-6-(3-hydroxy-3-methylazetidin-1-yl)-9H-purin-9-yl)-3-ethynyl-3,4-dihydroxytetrahydrofuran-2-yl)methoxy)malonic acid] as the compound, how does the IC50 read?
**A.** 2 nM

**Q.** C#C[C@@]1(O)[C@@H](COC(Cc2ccccc2)(C(=O)O)C(=O)O)O[C@@H](n2cnc3c(N4CC[C@H](O)C4)nc(Cl)nc32)[C@@H]1O [Example 65, 2-benzyl-2-(((2R,3S,4R,5R)-5-(2-chloro-6-((S)-3-hydroxypyrrolidin-1-yl)-9H-purin-9-yl)-3-ethynyl-3,4-dihydroxytetrahydrofuran-2-yl)methoxy)malonic acid] was tested. Which IC50 did it give?
**A.** 1 nM

**Q.** For C#C[C@@]1(O)[C@@H](CO[C@](Cc2ccc(N3CCCNC3=O)cc2)(C(=O)O)C(=O)OCC)O[C@@H](n2cnc3c(N)nc(Cl)nc32)[C@@H]1O (single isomer, unassigned) [Example 164], which IC50 is on record?
**A.** 261 nM

**Q.** C#C[C@@]1(O)[C@@H](COC(Cc2ccccc2)(C(=O)O)C(=O)O)O[C@@H](n2cnc3c(CCCC(=O)O)nc(Cl)nc32)[C@@H]1O [Example 163, 2-benzyl-2-(((2R,3S,4R,5R)-5-(6-(3-carboxypropyl)-2-chloro-9H-purin-9-yl)-3-ethynyl-3,4-dihydroxytetrahydrofuran-2-yl)methoxy)malonic acid] was tested. Which IC50 did it give?
**A.** > 100 nM

**Q.** How did the IC50 turn out when C#C[C@@]1(O)[C@@H](CO[C@@](Cc2ccc(N3CCCNC3=O)cc2)(C(=O)O)C(=O)OCC)O[C@@H](n2cnc3c(N)nc(Cl)nc32)[C@@H]1O (single isomer, unassigned) [Example 165] was run?
**A.** 45 nM

**Q.** For C#C[C@@]1(O)[C@@H](COC(Cc2nc3ccccc3s2)(C(=O)O)C(=O)O)O[C@@H](n2cnc3c(NCc4ccc(F)cc4)nc(Cl)nc32)[C@@H]1O [Example 112, 2-(benzo[d]thiazol-2-ylmethyl)-2-(((2R,3S,4R,5R)-5-(2-chloro-6-((4-fluorobenzyl)amino)-9H-purin-9-yl)-3-ethynyl-3,4-dihydroxytetrahydrofuran-2-yl)methoxy)malonic acid], which IC50 is on record?
**A.** 1360 nM

**Q.** C#C[C@@]1(O)[C@@H](COC(Cc2ccc(-c3cccn(CCO)c3=O)cc2)(C(=O)O)C(=O)O)O[C@@H](n2cnc3c(NC(C)C)nc(Cl)nc32)[C@@H]1O [Example 153, 2-(((2R,3S,4R,5R)-5-(2-chloro-6-(isopropylamino)-9H-purin-9-yl)-3-ethynyl-3,4-dihydroxytetrahydrofuran-2-yl)methoxy)-2-(4-(1-(2-hydroxyethyl)-2-oxo-1,2-dihydropyridin-3-yl)benzyl)malonic acid] was tested. Which IC50 did it give?
**A.** 0.48 nM

**Q.** C#C[C@@]1(O)[C@@H](COC(Cc2ccccc2)(C(=O)O)C(=O)O)O[C@@H](n2cnc3c(N[C@@H](C)c4ccccc4)nc(Cl)nc32)[C@@H]1O [Example 63, 2-benzyl-2-(((2R,3S,4R,5R)-5-(2-chloro-6-(((S)-1-phenylethyl)amino)-9H-purin-9-yl)-3-ethynyl-3,4-dihydroxytetrahydrofuran-2-yl)methoxy)malonic acid] was tested. Which IC50 did it give?
**A.** 1 nM

**Q.** For C#C[C@@]1(O)[C@@H](COC(Cc2ccc(-c3cccn(CCC)c3=O)cc2)(C(=O)O)C(=O)O)O[C@@H](n2cnc3c(NC)nc(Cl)nc32)[C@@H]1O [Example 160, 2-(((2R,3S,4R,5R)-5-(2-chloro-6-(methylamino)-9H-purin-9-yl)-3-ethynyl-3,4-dihydroxytetrahydrofuran-2-yl)methoxy)-2-(4-(2-oxo-1-propy-1,2-dihydropyridin-3-yl)benzyl)malonic acid], which IC50 is on record?
**A.** 0.31 nM

**Q.** C#C[C@@]1(O)[C@@H](COC(Cc2ccoc2)(C(=O)O)C(=O)O)O[C@@H](n2cnc3c(N)nc(Cl)nc32)[C@@H]1O [Compound 8, 2-(((2R,3S,4R,5R)-5-(6-amino-2-chloro-9H-purin-9-yl)-3-ethynyl-3,4-dihydroxytetrahydrofuran-2-yl)methoxy)-2-(furan-3-ylmethyl)malonic acid] was tested. Which IC50 did it give?
**A.** 2 nM

Source: patent publication US11078228B2, “Ectonucleotidase inhibitors and methods of use thereof” (Calithera Biosciences, Inc., priority 2018, dated 2021)
